# Test results reported in patent US9868695B2 (priority 2014, dated 2018).
# Where two headings read alike, the source gives them in different places.
# Columns and labels:
# HCT-116 = test: Antiproliferative activity, MTT assay, HCT-116; assay type: cell-based, Human
# Experimental: (§1) Human colon cancer cell lines HCT-116 (NCI, passage no. 5) and Colo-205 116 (NCI, passage no. 3) were procured from National Cancer Institute, USA. HCT-116 and Colo-205 cells were grown in McCoy's 5A and RPMI growth medium respectively containing 10% FCS, 100 U penicillin and […] per mL medium. Cells were grown in CO2 incubator (Thermocon Electron Corporation, Houston, Tex.) at 37° C. with 95% humidity and 5% CO2 gas environment. Cells treated with tested materials were dissolved in DMSO while the untreated control cultures received only the vehicle (DMSO<0.2%). Cells were seeded in 96 well plates and exposed to tested compounds at various concentrations for 48 h time interval. MTT dye (2.5 mg/ml in PBS) was added 4 hrs priors to experiment termination. The plates were then centrifuged at 1500 rpm for 15 min and the supernatant was discarded, and MTT formazan crystals were dissolved in 150 μl of DMSO. The OD measured at 570 nm with reference wavelength of 620 nm.
# (§2) The percentages of cell viability and growth inhibition were calculated using formulas: […]
# [1] = Thermodynamic equilibrium solubility; assay type: physicochemical; details: 25 °C, thermodynamic from solid, 25±1° C.
# Experimental: The compounds were first dissolved in methanol to prepare stock solutions (100 and 1000 μg/mL). Different concentrations of stock solutions were pipetted into the 96-well plates and the solvent was evaporated to ensure that solid drug was present in the beginning of the experiment. Thereafter, 200 μl of the dissolution medium was added to the wells and 96-well plate was shaken horizontally at 300 rpm (Eppendorf Thermoblock Adapter, North America) for 4 h at room temperature (25±1° C.). The plates were kept overnight for equilibration of drug in medium. Later, the plates were centrifuged at 3000 rpm for 15 min (Jouan centrifuge BR4i). Supernatant (50 μl) was pipetted into UV 96-well plates (Corning® 96 Well Clear Flat Bottom UV-Transparent Microplate) for analyses with plate reader (SpectraMax Plus384) at λmax of 350 nm. The analyses were performed in triplicate for each compound. The solubility curve of concentration (μg/mL) vs absorbance was plotted to find out saturation point and the corresponding concentration was noted.
# Colo-205 = test: Antiproliferative activity, MTT assay, Colo-205; assay type: cell-based; details: Homo sapiens, 48 h
# Experimental: as §1, §2
# P-gp = P-gp induction assay, rhodamine123 (Rh123) cell exclusion method in LS-180 cells; details: for % intracellular accumulation of Rh123 in LS180 cells: compound 100 nM, decrease indicates P-gp induction; for % intracellular accumulation of Rh123 in LS180 cells / EC50: 48 h; for EC50: read-out: EC50, induction of P-gp, P-gp overexpressing LS-180 cells
# Experimental: All synthesized compounds were screened for their ability to induce P-gp by using rhodamine123 (Rh123) cell exclusion method. In this method, the P-gp function was evaluated in terms of rhodamine 123 (Rh123) accumulation and efflux. Briefly, the protocol used is as follows: Colorectal LS-180 cells (ECACC type, purchased from Sigma, Cat. no. 87021202, cell passage no. 52) were seeded at a density of 2×10^4 per well of 96 well plate and were allowed to grow for next 24 h. Cells were further incubated with the test compounds, and were diluted to a final concentration of 100 nM and rifampicin (standard) to a final concentration of 10 μM in complete media for 48 h. The final concentration of DMSO was kept at 0.1%. Drugs were removed and cells were incubated with HANKS buffer for 40 minutes before further incubation with HANKS buffer (containing 10 μM of Rh123 as a P-gp substrate) for 90 minutes. At the end of Rh123 treatment cells were washed four times with cold PBS followed by cell lysis for 1 h by using 200 μl of lysis buffer (0.1% Triton X-100 and 0.2 N NaOH). A total of 100 μl of lysate was used for reading fluorescence of Rh123 at 485 nm/529 nm. Samples were normalized by dividing fluorescence of each sample with total protein present in the lysate. For EC50 determination, different concentrations of compound were used to treat LS180 cells for 48 h. EC50 was determined by plotting fluorescence of Rh123 against concentration of compound.
# Ehrlich solid tumor = test: In vivo activity in Ehrlich solid tumor model; set-up: species or system swiss mice; details: for % Tumor Growth Inhibition: day 13 vs saline control; for Mortality: dead/group size
# Experimental: Ehrlich ascites carcinoma (EAC) cells were collected from the peritoneal cavity of the swiss mice (animal house of IIIM registered eith CPCSEA; registration no. 67/99/CPCSEA) weighing 18-23 gm, harbouring 8-10 days old ascitic tumor. 1×10^7 EAC cells were injected intramuscularly in the right thigh of 38 swiss male mice selected for the experiment on day 0. The next day, animals were randomized and divided into five groups. Four treatment groups contained 7 animals each and one control group contained 10 animals. Treatment was given as follows:
# Group I: 1 (0.75 mg/kg, i/p) from day 1-9.
# Group II: 1g (1 mg/kg, i/p) from day 1-9.
# The third treatment group was treated with 5-fluorouracil (22 mg/kg, i/p) from day 1-9 and it served as positive control. The control group was similarly administered normal saline (0.2 ml, i/p) from day 1-9. On day 9 & 13, tumor bearing thigh of each animal was shaved and longest and shortest diameters of the tumor were measured with the help of vernier caliper. Tumor weight of each animal was calculated using the following formula.
# The percent tumor growth inhibition was calculated on day 13 by comparing the average values of treated groups with that of control group. Tumor growth in saline treated control animals was taken to be 100%.
# [2] = system: microtubules in HCT-116 cells; test: Effect of compounds on microtubules, confocal microscopy; assay type: cell-based, Human; details: 100 nM, 24 h, anti-α-tubulin staining, compared to control
# Experimental: For detection of tubulins, HCT-116 cells (1×10^5 cells/well) were seeded on to 18 mm square cover slips in six well plates in complete medium. […] After the treatment period, cells were fixed in 4% paraformaldehyde for 10 min at room temperature and permeabilized using 0.5% Triton-X in PBS for 5 min. The cells were blocked with 10% goat serum for 20 min at room temperature. Microtubules were detected with a monoclonal α-tubulin antibody (Sigma, Catalogue number: T9026) diluted 1:100 in 0.1% Triton X-100 in PBS for 1 h at room temperature and Alexa Fluor 488 conjugated secondary antibody (Invitrogen) diluted 1:500 in PBS for 1 h at room temperature. Cells were then washed three times in PBS and stained with 4′,6-diamidino-2-phenylindole (DAPI 1 μg/ml in PBS). The cover slips were mounted over glass slides and cells were imaged by a laser scanning confocal microscope (Olympus Fluoview FV1000). The promising candidates identified through P-gp screening and antiproliferative screening were further studied for tubulin polymerization inhibition activity.
# [3] = aqueous buffer, phosphate buffer saline, read-out: Solubility, PBS
# [4] = fassgf or other biorelevant, simulated intestinal fluid, read-out: Solubility, SIF
# [5] = simulated gastric fluid, read-out: Solubility, SGF
# [6] = water, read-out: Solubility, Water
# [7] = day 13, i/p day 1-9, 1 0.75 mg/kg, 1g 1 mg/kg, 5-fluorouracil 22 mg/kg
# [8] = i/p day 1-9, 1 0.75 mg/kg, 1g 1 mg/kg, 5-fluorouracil 22 mg/kg
structure (smiles),measurement,setting,value
"COc1cc2c(c(OC)c1OC)-c1ccc(N3CCC(c4ccccc4)CC3)c(=O)cc1C(NC(C)=O)CC2 [Compound 1d, N-[(7S)-1,2,3-Timethoxy-9-oxo-10-(4-phenyl-piperidin-1-yl)-5,6,7,9-tetrahydrobenzo[a]heptalen-7-yl]acetamide]",IC50,HCT-116; 48 h,1000 nM
same,IC50,"HCT-116; Homo sapiens, HCT-116, 48 h",≤ 1000 nM
same,solubility,[1]; [3],80 µg/mL
same,solubility,[1]; [4],20 µg/mL
same,solubility,[1]; [5],> 1500 µg/mL
same,solubility,[1]; [6],80 µg/mL
same,IC50,Colo-205,800 nM
same,% intracellular accumulation of Rh123 in LS180 cells,P-gp; control = 100%,90%
same,EC50,P-gp,29.6 nM
"COc1cc2c(c(OC)c1OC)-c1ccc(N3CCC[C@@H]3CO)c(=O)cc1C(NC(C)=O)CC2 (stereo partly drawn) [Compound 1e, N-[(7S)-1,2,3-Trimethoxy-9-oxo-10-(L-prolinol-1-yl)-5,6,7,9-tetrahydrobenzo[a]heptalen-7-yl]acetamide]",IC50,"HCT-116; Homo sapiens, HCT-116, 48 h",10000 nM
same,IC50,Colo-205,8000 nM
O=c1[nH]cc(F)c(=O)[nH]1 [5-Fluorouracil],Day 13 Avg. tumor weights,Ehrlich solid tumor; [7],668.2 mg
same,% Tumor Growth Inhibition,Ehrlich solid tumor; [8],54.78%
same,Mortality,Ehrlich solid tumor; [8],0/7
"COc1cc2c(c(OC)c1OC)-c1ccc(N3CCN(C(=O)OC(C)(C)C)CC3)c(=O)cc1C(NC(C)=O)CC2 [Compound 1c, N-[(7S)-1,2,3-Trimethoxy-9-oxo-10-(N-boc-piperazin-1-yl)-5,6,7,9-tetrahydrobenzo[a]heptalen-7-yl]acetamide]",IC50,"HCT-116; Homo sapiens, HCT-116, 48 h",4000 nM
same,IC50,Colo-205,3000 nM
"COc1cc2c(c(OC)c1OC)-c1ccc(N3CCc4c([nH]c5ccccc45)C3)c(=O)cc1[C@@H](NC(C)=O)CC2 [Compound 1f, N-[(7S)-1,2,3-Trimethoxy-9-oxo-10-(2,3,4,9-tetrahydro-1H-pyrido[3,4-b]indole-2-yl)-5,6,7,9-tetrahydrobenzo[a]heptalen-7-yl]acetamide]",IC50,"HCT-116; Homo sapiens, HCT-116, 48 h",3000 nM
same,IC50,Colo-205,800 nM
same,% intracellular accumulation of Rh123 in LS180 cells,P-gp; control = 100%,90%
"COc1cc2c(c(OC)c1OC)-c1ccc(OC)c(=O)cc1[C@@H](NC(C)=O)CC2 [Compound 1, Colchicine]",disruption of microtubule assembly,[2],remarkable disruption and loss of microtubules
same,"mortality, animals in the group of 7 animals","Ehrlich solid tumor; colchicine 0.75 mg/kg, i/p",2 animals
same,"mortality, animals in the group of 7 animals","Ehrlich solid tumor; colchicine 1 mg/kg, i/p, text and footnote",5 animals
same,Avg. body weights (g) of animal on days 1,"Ehrlich solid tumor; day 1, i/p day 1-9, 1 0.75 mg/kg, 1g 1 mg/kg, 5-fluorouracil 22 mg/kg",22.28 g
same,Avg. body weights (g) of animal on days 5,"Ehrlich solid tumor; day 5, i/p day 1-9, 1 0.75 mg/kg, 1g 1 mg/kg, 5-fluorouracil 22 mg/kg",21.42 g
same,Avg. body weights (g) of animal on days 9,"Ehrlich solid tumor; day 9, i/p day 1-9, 1 0.75 mg/kg, 1g 1 mg/kg, 5-fluorouracil 22 mg/kg",20.2 g
same,Day 13 Avg. body weights,Ehrlich solid tumor; [7],19.25 g
same,Day 13 Avg. tumor weights,Ehrlich solid tumor; [7],705.0 mg
same,% Tumor Growth Inhibition,Ehrlich solid tumor; [8],52.29%
same,Mortality,"Ehrlich solid tumor; colchicine 1 mg/kg, i/p",5/7
same,Mortality,Ehrlich solid tumor; [8],2/7
same,solubility,[1]; [3],800 µg/mL
same,solubility,[1]; [4],800 µg/mL
same,solubility,[1]; [5],200 µg/mL
same,solubility,[1]; [6],> 1500 µg/mL
same,% intracellular accumulation of Rh123 in LS180 cells,P-gp; control = 100%,62%
same,EC50,P-gp,14.4 nM
"COc1cc2c(c(OC)c1OC)-c1ccc(N3CCNCC3)c(=O)cc1[C@@H](NC(C)=O)CC2 [Compound 1a, N-[(7S)-1,2,3-Trimethoxy-9-oxo-10-(piperazin-1-yl)-5,6,7,9-tetrahydrobenzo[a]heptalen-7-yl]acetamide]",IC50,"HCT-116; Homo sapiens, HCT-116, 48 h",> 10000 nM
same,melting point,,158 to 161 °C
same,IC50,Colo-205,8000 nM
same,% intracellular accumulation of Rh123 in LS180 cells,P-gp; control = 100%,90%
"COc1cc2c(c(OC)c1OC)-c1ccc(N3CCC(N)CC3)c(=O)cc1[C@@H](NC(C)=O)CC2 [Compound 1b, N-[(7S)-1,2,3-Trimethoxy-9-oxo-10-(4-amino-piperidin-1-yl)-5,6,7,9-tetrahydrobenzo[a]heptalen-7-yl]acetamide]",IC50,"HCT-116; Homo sapiens, HCT-116, 48 h",10000 nM
same,IC50,Colo-205,5000 nM
same,% intracellular accumulation of Rh123 in LS180 cells,P-gp; control = 100%,90%
"CO[C@H]1/C=C/O[C@@]2(C)Oc3c(C)c(O)c4c(O)c(c(/C=N/N5CCN(C)CC5)c(O)c4c3C2=O)NC(=O)/C(C)=C\C=C\[C@H](C)[C@H](O)[C@@H](C)[C@@H](O)[C@@H](C)[C@H](OC(C)=O)[C@@H]1C [rifampicin, reference compound]",% intracellular accumulation of Rh123,"P-gp; rifampicin 10 μM, positive control, control = 100%",69%
